Assay results from US6486161B1, “Use of rifamycin derivative for treating mastitis in a domestic animal” (priority 2000, dated 2002).
Values after ≈ are worked out from the molar mass of the structure shown. Read-outs that look alike come from different tables or passages of the source.

Key:
[1] = test system: Staphylococcus aureus 9203; assay: S. aureus intracellular killing assay in bovine PMN; format: cell-based; settings: overnight incubation (18 to 21 hours)
Description: The therapeutic effect of the rifamycin derivative (1) was determined by S. aureus intracellular killing assay in bovine polymorphonuclear neutrophil (PMN).
The procedure for PMN isolation was as described in Carlton et al. (Proc. Soc. Exp. Biol. Med. 142: 853-858 (1973)).
Bovine blood collected by venipuncture in 50-ml syringes containing 1.5% EDTA (pH 6.8) was centrifuged at 1,000×g for 25 min. The plasma-buffer layer and the top few millileters were discarded. The packed erythrocyte fraction was pooled in 0.8% NaCl-phosphate buffer (pH 6.8) and 10 ml was placed in 20 ml of sterile water for 40 seconds to lyse the erythrocytes. Immediately thereafter, 10 ml of a 2.7% NaCl-phosphate buffer solution was added to restore isotonicity. The leukocytes, consisting of ≦84% PMNs, were washed twice and suspended in HBSS. PMNs were adjusted to a final concentration of 10^7 cells per ml.
The intracellular killing assay was carried out as described in Sanchez et al. (Antimicrobial Agents and Chemotherapy 29(4): 634-638 (1986)).
Bovine blood PMNs and bacteria (1:1) were suspended in HBSS containing 10% heterologous bovine serum. The mixture was incubated for 90 minutes at 37° C. in Erlenmeyer flasks with rotational mixing at 110 rpm. Lysostaphin (5 μg/ml) was added to the mixture for the final 15 minutes of incubation. The infected PMNs were washed 3 times by low-speed centrifugation and suspended in HBSS. Cells were pipetted (1 ml) into each well of a six-well cluster dish (Bellco Glass, Inc., Vineland, N.J.) at 5×10^6 PMNs per well. PMNs were allowed to attach and form a monolayer for 10 minutes at 37° C. The supernatant fluid with unattached cells was discarded, and 2 ml of fresh HBSS was added to each well. The rifamycin derivatives to be tested were then added to the wells (one six-well plate per drug). These derivatives were dissolved in dimethylsulfoxide, and then diluted in HBSS to final solvent concentrations of 0.01% (vol/vol) or less.
After overnight incubation (18 to 21 hours) at 37° C. with 1% CO2, lysostaphin (5 μg/ml) was added to each well for 15 min (at 37° C.) to kill extracellular bacteria. The monolayers were washed with HBSS, and the cells were lysed by addition of 1 ml of water to each well. The number of viable bacteria was then estimated by plate counts on brain heart infusion agar. […] The results are shown in Table 2, wherein R is the alkyl group in the rifamycin derivative (1).

[2] = Oral toxicity in mice; format: in vivo; settings: orally administered to mice, 1,000 mg/kg
[3] = test system: Staphylococcus aureus 6097; assay: Dose titration in the mouse mastitis model (S. aureus-induced murine mastitis); format: in vivo; settings: mice, read 6 days after infection; for ED (mg/kg/d) Mastitis: 50% of mice without mastitis; for ED (mg/kg/d) Culture: 50% of mice with no bacteria cultured from gland
[4] = test system: Staphylococcus aureus 9203; assay: MIC against the strain of the intracellular killing assay; format: cell-based
[5] = test system: S. aureus 30857, a rifampin-resistant isolate; assay: MIC, microbroth dilution, strain 30857; format: cell-based, Staphylococcus aureus; settings: strain 30857
Description: (§1) Four S. aureus strains were used: S. aureus 30857, a rifampin-resistant isolate: S. aureus 6097, a strain used in the mouse mastitis test and originally from a case of gangrenous bovine mastitis; S. aureus B83-1, derived from the Newbould 305 strain; and S. aureus ATCC 29213, the in vitro control stain recommended by NCCLS.
(§2) All S. aureus strains were maintained on 3 mm glass beads immersed in trypticase soy broth (BBL Microbiology Systems, Cockeysville, Md.) with 10% glycerol and held at −70° C. until revived. Prior to testing, the strains were subcultured on tryptose blood agar base (Difco, Detroit, Mich.) supplemented with 5% sheep blood for 24 hours at 35° C.
(§3) These compounds were dissolved in 95% ethanol, a solution which was then diluted to 10% ethanol with sterile distilled water. Further dilutions were conducted in water.
(§4) MIC (Minimum Inhibitory Concentration) determinations were performed using the microbroth dilution method. (National Committee for Clinical Laboratory Standards, 1990 Approved Standard […]. Methods for dilution antimicrobial susceptibility tests for bacteria that grow aerobically, 3rd edition. National Committee for Clinical Laboratory Standards, Villanova, Pa.) The results are shown in Table 3, wherein R is the alkyl group R in the rifamycin derivative (1).

[6] = test system: S. aureus 6097; assay: MIC, microbroth dilution, strain 6097; format: cell-based, Staphylococcus aureus
Description: as §1, §2, §3, §4

[7] = test system: S. aureus B83-1; assay: MIC, microbroth dilution, strain B83-1; format: cell-based, Staphylococcus aureus
Description: as §1, §2, §3, §4

[8] = test system: S. aureus ATCC 29213; assay: MIC, microbroth dilution, strain ATCC 29213; format: cell-based, Staphylococcus aureus
Description: as §1, §2, §3, §4

[9] = test system: S. aureus 30857, a rifampin-resistant isolate; format: cell-based, Staphylococcus aureus; settings: strain 30857
Description: (§5) The mutation frequency for development of resistance to the rifamycin derivative (1) as compared to rifampin was determined with selected Staphylococcus aureus strains.
as §1, §2, §3
(§6) The mutation frequency for development of resistance to the compounds tested was determined by the following method. A single colony of each strain was removed from the surface of a blood agar plate with a cotton swab, suspended in 5 ml of Mueller-Hinton broth (BBL), and streaked on the entire surface of five Mueller-Hinton agar plates. The plates were incubated overnight under aerobic conditions at 35° C., growth was removed from the agar using a sterile cotton swab, and the bacteria were suspended in 10 ml physiological saline. This bacterial suspension was the inoculum for the mutation frequency determinations. Standard plate counts were performed on the inoculum by performing serial dilutions and plating a 0.1 ml aliquot on the surface of ten Mueller-Hinton agar plates at each concentration. The plates were incubated for 18-24 hours at 35° C. under aerobic conditions and colony counts performed. Mean bacterial counts were calculated for the inoculum with each strain.
(§7) A 0.1 ml aliquot of the inoculum was then used to inoculate the entire surface of ten plates each containing 1, 10, and 100 μg/ml of the test antimicrobial agents. The plates were incubated for 18-24 hours at 35° C. under aerobic conditions and colony counts performed. Mean bacterial counts were calculated for each antimicrobial concentration and the mutation frequency calculated by dividing the number of colonies which grew on the drug containing media by the inoculum size.

[10] = test system: S. aureus 6097; assay: Mutation frequency for resistance, strain 6097; format: cell-based, Staphylococcus aureus
Description: as §5, §1, §2, §3, §6, §7

[11] = test system: S. aureus B83-1; assay: Mutation frequency for resistance, strain B83-1; format: cell-based, Staphylococcus aureus
Description: as §5, §1, §2, §3, §6, §7

[12] = test system: S. aureus ATCC 29213; assay: Mutation frequency for resistance, strain ATCC 29213; format: cell-based, Staphylococcus aureus
Description: as §5, §1, §2, §3, §6, §7

[13] = route IMM (intramammary), 1 hour after infection

Row | SMILES | % reduction ([1]; 100X MIC) [%] | CFU/ml ISD (×10^3) ([1]; 100X MIC) | toxicity [2] | ED (mg/kg/d) Mastitis [3, 13] [mg/kg/day] | ED (mg/kg/d) Culture ([3]; route IMM (intramammary)) [mg/kg/day] | ED (mg/kg/d) Culture ([3]; route SC (subcutaneous)) [mg/kg/day] | ED (mg/kg/d) Mastitis ([3]; route SC (subcutaneous)) [mg/kg/day] | % reduction ([1]; 1X MIC) [%] | CFU/ml ISD (×10^3) ([1]; 1X MIC) | MIC [4] | also measured
1 | Cc1onc(-c2ccccc2Cl)c1C(=O)N[C@@H]1C(=O)N2[C@@H]1SC(C)(C)[C@@H]2C(=O)O [Cloxacillin, reference compound] | 0.0 | 5.9 ± 1.9 CFU/ml (×10^3) | – | – | – | – | – | – | – | – | –
2 | COC1/C=C/OC2(C)Oc3c(C)c(O)c4c(=O)c(c5oc6cc(N7CCN(C8CC8)CC7)cc(O)c6nc-5c4c3C2=O)NC(=O)/C(C)=C\C=C\C(C)C(O)C(C)C(O)C(C)C(OC(C)=O)C1C (stereo not shown) [R = cyclopropyl] | – | – | did not show any toxicity | – | – | – | – | – | – | – | –
3 | CCN1CCN(c2cc(O)c3nc4c5c6c7c(C)c(O)c5c(=O)c(c-4oc3c2)NC(=O)/C(C)=C\C=C\C(C)C(O)C(C)C(O)C(C)C(OC(C)=O)C(C)C(OC)/C=C/OC(C)(O7)C6=O)CC1 (stereo not shown) [R = ethyl] | 100 | 0.0 CFU/ml (×10^3) | did not show any toxicity | 0.3 | 0.4 | 1.5 | 0.4 | 97.0 | 0.09 ± 0.04 CFU/ml (×10^3) | ≦0.03 μg/ml | –
4 | COC1/C=C/OC2(C)Oc3c(C)c(O)c4c(=O)c(c5oc6cc(N7CCN(CC(C)C)CC7)cc(O)c6nc-5c4c3C2=O)NC(=O)/C(C)=C\C=C\C(C)C(O)C(C)C(O)C(C)C(OC(C)=O)C1C (stereo not shown) [R = isobutyl] | 100 | 0.0 CFU/ml (×10^3) | did not show any toxicity | 0.3 | 0.3 | 3.5 | 3.5 | 95.0 | 0.15 ± 0.06 CFU/ml (×10^3) | ≦0.03 μg/ml | MIC [5]: >4000 ng/mL; MIC [6]: 0.98 ng/mL (≈ 1.04 nM); MIC [7]: 1.9 ng/mL (≈ 2.02 nM); MIC [8]: 1.9 ng/mL (≈ 2.02 nM); Mutation frequency ([9]; 1 μg/ml): >1.0 × 10^−7; Mutation frequency ([9]; 10 μg/ml): >1.0 × 10^−7; Mutation frequency ([9]; 100 μg/ml): >1.0 × 10^−7; Mutation frequency ([10]; 1 μg/ml): 9.5 × 10^−8; Mutation frequency ([10]; 10 μg/ml): 8.9 × 10^−8; Mutation frequency ([10]; 100 μg/ml): 9.9 × 10^−8; Mutation frequency ([11]; 1 μg/ml): 5.0 × 10^−8; Mutation frequency ([11]; 10 μg/ml): 5.2 × 10^−8; Mutation frequency ([11]; 100 μg/ml): 4.7 × 10^−8; Mutation frequency ([12]; 1 μg/ml): 3.0 × 10^−8; Mutation frequency ([12]; 10 μg/ml): 3.7 × 10^−8; Mutation frequency ([12]; 100 μg/ml): 3.5 × 10^−8
5 | COC1/C=C/OC2(C)Oc3c(C)c(O)c4c(=O)c(c5oc6cc(N7CCN(C(C)C)CC7)cc(O)c6nc-5c4c3C2=O)NC(=O)/C(C)=C\C=C\C(C)C(O)C(C)C(O)C(C)C(OC(C)=O)C1C (stereo not shown) [R = isopropyl] | 100 | 0.0 CFU/ml (×10^3) | did not show any toxicity | 0.2 | 0.2 | 0.6 | 0.4 | 100 | 0.0 CFU/ml (×10^3) | ≦0.03 μg/ml | –
